# Reference: publication doi:10.1101/2023.08.21.552681v1 (biorxiv, 2023)
# Target: T1, ctdWDR91 (Homo sapiens, UniProt A4D1P6)
# T1 sequence (A4D1P6 392-747): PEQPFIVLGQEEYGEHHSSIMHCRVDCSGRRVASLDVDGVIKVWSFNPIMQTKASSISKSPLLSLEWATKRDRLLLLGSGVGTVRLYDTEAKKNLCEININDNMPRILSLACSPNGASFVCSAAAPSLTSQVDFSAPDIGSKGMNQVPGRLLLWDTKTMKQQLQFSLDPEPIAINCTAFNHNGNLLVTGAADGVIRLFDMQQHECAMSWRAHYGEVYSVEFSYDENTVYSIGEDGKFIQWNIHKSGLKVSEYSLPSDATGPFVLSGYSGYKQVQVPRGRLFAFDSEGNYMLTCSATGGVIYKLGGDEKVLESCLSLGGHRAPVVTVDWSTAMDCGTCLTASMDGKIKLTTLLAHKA
# Settings: at saturation (0-200 uM series), 2 h pre-incubation; covalent
row,Compound,DSF_delta_Tm_
1,C=CC(=O)N1CCCc2c(C(=O)NC3(c4ccc(Cl)cc4)COC3)cccc21 [MRTR046654a],4 °C
2,C=CC(=O)N1CCCc2c(C(=O)NC(c3ccc(Cl)cc3)C3CC3)cccc21 (centres unmarked) [DRTR002365a],4 °C
